{"source": "patent US20240247289A1", "about": "“ANTIBIOTIC FREE FERMENTATIONS, SYSTEMS AND METHODS FOR ACHIEVING ANTIBIOTIC FREE FERMENTATIONS, AND FE[…]-PRODUCTS GENERATED BY ANTIBIOTIC FREE FERMENTATIONS” (POET Research, Inc., priority 2023, published 2024)", "key": {"[1]": {"tested_on": "lactic acid bacteria", "details": "cook process fermentation, infected, formic acid 100-400 ppm without hop acids (FIG. 4)", "protocol": "(§1) Saccharomyces cerevisiae, was added to a yeast propagation set up as follows. Liquefied corn slurry acquired from a biorefinery was diluted in an appropriate ratio to obtain slurry (mash) with 20 percent dry solids (including the solids contributed by the pre-blend water). The pH of the slurry liquefact was approximately 5.0-5.5. The enzyme blend for fermentation was added to the slurry. Urea (50 percent liquor) was added to the slurry to give a final concentration of approximately 1000 ppm urea. The slurry was dispensed in 100 milliliter wide mouth bottles at 60 milliliters per bottle. The bottles were covered with a bottle cap with a 1/16″ hole drilled into the top for gas release following addition of enzyme and inoculation of the necessary organisms and placed stationary in a water bath. The fermentation temperature was held constant at 32.2 degrees Celsius for 8-16 hours. This yeast propagation was then used to inoculate fermentations including yeast at a ratio level of 2% total fermentation volume.\n(§2) Liquefied corn slurry was acquired from a biorefinery with 30-35% percent dry solids (including the solids contributed by the pre-blend water). The pH of the slurry was approximately 5.0. The enzyme blend for fermentation was added to the slurry. Urea (50 percent liquor) was added to the slurry to give a final concentration of approximately 1000 ppm urea. The slurry was mixed in 100 milliliter wide mouth bottles at 60 milliliters per bottle. The bottles were covered with a bottle cap with a 1/16″ hole drilled into the top for gas release following addition of enzyme and inoculation of the necessary organisms and placed stationary in a water bath. The fermentation temperature was held constant at 33 degrees Celsius for 72 hours. Bottles were mixed well, and samples were withdrawn at various intervals during the course of fermentation and analyzed for sugars, organic acids and ethanol using high performance liquid chromatography (HPLC)."}, "[2]": {"tested_on": "Saccharomyces cerevisiae", "details": "cook process fermentation, infected", "protocol": "as §1, §2"}, "[3]": {"tested_on": "lactic acid bacteria", "details": "RSH fermentation, infected samples, formic acid alone 100-400 ppm (FIG. 2)", "protocol": "(§3) Saccharomyces cerevisiae, yeast was added to a yeast propagation set up as follows. Ground corn was mixed with “pre-blend” (a mixture of the waters from various streams that are reused in an ethanol production facility) in an appropriate ratio to obtain slurry (mash) with 35 percent dry solids (including the solids contributed by the pre-blend water). “Preblend” was used as make up water in these studies to simulate the composition of mash, employing an exemplary embodiment provided herein, as it would be in a commercial ethanol production facility. The pH of the corn and “pre blend” slurry was approximately 4.5-4.8. An enzyme blend for raw starch hydrolysis was added to the slurry. Urea (50 percent liquor) was added to the slurry to give a final concentration of approximately 1000 ppm urea. The slurry was mixed in 100 milliliter wide mouth bottles at 60 milliliters per bottle. The bottles were covered with a bottle cap with a 1/16″ hole drilled into the top for gas release following addition of enzyme and the yeast and placed stationary in a water bath. […]\n(§4) The slurry was mixed in 100 milliliter wide mouth bottles at 60 milliliters per bottle. […] Bottles were mixed well, and samples were withdrawn at various intervals during the course of fermentation and analyzed for sugars, organic acids and ethanol using high performance liquid chromatography (HPLC)."}, "[4]": {"tested_on": "Saccharomyces cerevisiae", "details": "RSH fermentation, infected samples, formic acid alone 100-400 ppm, compared to other infected samples (FIG. 1)", "protocol": "as §3, §4"}}, "data": [{"smiles": "O=CO", "note": "[formic acid]", "values": [{"measurement": "Ppm lactic acid at 72 hours", "setting": "[1]", "result": "decreased dose dependently"}, {"measurement": "% v/v ethanol at 72 hours, vs Phibro Xact 2.5 ppm", "setting": "[2]; formic acid treated samples, at most dosages (FIG. 3)", "result": "greater than the % v/v ethanol generated by fermentation with Phibro Xact"}, {"measurement": "% v/v ethanol at 72 hours", "setting": "[2]; increasing doses of formic acid alone 100-400 ppm (FIG. 3)", "result": "increase in % v/v ethanol"}, {"measurement": "ppm lactic acid at 88 hours", "setting": "[3]", "result": "reduced lactic acid ppm at 88 hours fermentation in a dose dependent method"}, {"measurement": "% v/v ethanol at 88 hours", "setting": "[4]", "result": "substantially reduced % v/v ethanol"}]}]}
